Reference: patent publication US20090221690A1, “Pharmaceutical Composition for the Prevention/Treatment of Bone Disorders and a Process for the Preparation Thereof” (COUNCIL OF SCIENTIFIC AND INDUSTRIAL RESEARCH, priority 2006, published 2009)

What follows are compounds tested on osteoblasts (assay: Osteogenic activity of isolated compounds based on alkaline phosphatase expression, MTT and mineralisation in vitro). Details: not given.
Assay type: cell-based
From the text: K051, K052, K054, K080, K082 (isolated from n-butanol soluble fraction) and K095 (isolated from chloroform soluble fraction) (FIGS. 11-15; Tables 10-11).

Compound	osteogenic activity
COc1cc(O)c2c(=O)c(-c3ccc(O)cc3O)coc2c1 [Compound K051, 2′,4′,5-trihydroxy-7-methoxy isoflavones]	promising osteogenic activity
COc1ccc2c(=O)c(-c3ccc(O)cc3)coc2c1 [Compound K052, 4′-hydroxy, 7-methoxy-isoflavone]	promising osteogenic activity
COc1ccc(-c2coc3cc(O)ccc3c2=O)cc1O [Compound K054, 7, 3′-dihydroxy-4′-methoxyisoflavone]	promising osteogenic activity

The compounds below were run on osteoblasts (assay: Quantification of alkaline phosphatase activity in osteoblasts). Details: 10^−5 M; 48 h; Control 1.87 ± 0.20; Mean±SEM.
Assay type: cell-based, Balb/c mouse
Set-up: alkaline phosphatase activity: unit not given here
Method: (§1) Neonatal mouse calvarial cell cultures are prepared as described previously (Endocrinology 139:4743) using slight modification. Briefly, for primary osteoblast cell cultures, frontal and parietal bones from Balb/c mouse neonates (1-3 day old) are digested in 0.1% collagenase/0.1% dispase in α-MEM to obtain 5 sequential digests. The second through fifth digests are combined and grown to confluence at 37° C. and 5% CO2 in air in α-MEM, supplemented with 10% fetal bovine serum (FBS), 2 mM glutamine, 100 U/ml penicillin-streptomycin, Non-essential amino acid solution and sodium pyruvate. The effect of test agents is analysed using the following tests:
p-Nitrophenol phosphate is a colorless substrate which is hydrolysed to colored p-nitrophenol by alkaline phosphatase enzyme. Rate of hydrolysis of p-nitrophenol phosphate is proportional to enzyme present in sample. […] Findings reveal that all the five pure compounds nos.

Compound	alkaline phosphatase activity
COc1cc(O)c2c(=O)c(-c3ccc(O)cc3O)coc2c1 [Compound K051, 2′,4′,5-trihydroxy-7-methoxy isoflavones]	3.26 ± 0.07
COc1ccc2c(=O)c(-c3ccc(O)cc3)coc2c1 [Compound K052, 4′-hydroxy, 7-methoxy-isoflavone]	2.29 ± 0.24
COc1ccc(-c2coc3cc(O)ccc3c2=O)cc1O [Compound K054, 7, 3′-dihydroxy-4′-methoxyisoflavone]	2.65 ± 0.09

Same assay, conditions: 10^−6 M; 48 h; Control 1.87 ± 0.20; Mean±SEM

Compound	alkaline phosphatase activity
COc1cc(O)c2c(=O)c(-c3ccc(O)cc3O)coc2c1 [Compound K051, 2′,4′,5-trihydroxy-7-methoxy isoflavones]	3.24 ± 0.09
COc1ccc2c(=O)c(-c3ccc(O)cc3)coc2c1 [Compound K052, 4′-hydroxy, 7-methoxy-isoflavone]	3.01 ± 0.09
COc1ccc(-c2coc3cc(O)ccc3c2=O)cc1O [Compound K054, 7, 3′-dihydroxy-4′-methoxyisoflavone]	3.25 ± 0.07

Same assay, conditions: 10^−7 M; 48 h; Control 1.87 ± 0.20; Mean±SEM

Compound	alkaline phosphatase activity
COc1cc(O)c2c(=O)c(-c3ccc(O)cc3O)coc2c1 [Compound K051, 2′,4′,5-trihydroxy-7-methoxy isoflavones]	3.23 ± 0.11
COc1ccc2c(=O)c(-c3ccc(O)cc3)coc2c1 [Compound K052, 4′-hydroxy, 7-methoxy-isoflavone]	3.05 ± 0.10
COc1ccc(-c2coc3cc(O)ccc3c2=O)cc1O [Compound K054, 7, 3′-dihydroxy-4′-methoxyisoflavone]	3.32 ± 0.06

Same assay, conditions: 10^−8 M; 48 h; Control 1.87 ± 0.20; Mean±SEM

Compound	alkaline phosphatase activity
COc1cc(O)c2c(=O)c(-c3ccc(O)cc3O)coc2c1 [Compound K051, 2′,4′,5-trihydroxy-7-methoxy isoflavones]	3.41 ± 0.12
COc1ccc2c(=O)c(-c3ccc(O)cc3)coc2c1 [Compound K052, 4′-hydroxy, 7-methoxy-isoflavone]	3.20 ± 0.06
COc1ccc(-c2coc3cc(O)ccc3c2=O)cc1O [Compound K054, 7, 3′-dihydroxy-4′-methoxyisoflavone]	3.35 ± 0.03

Same assay, conditions: 10^−9 M; 48 h; Control 1.87 ± 0.20; Mean±SEM

Compound	alkaline phosphatase activity
COc1cc(O)c2c(=O)c(-c3ccc(O)cc3O)coc2c1 [Compound K051, 2′,4′,5-trihydroxy-7-methoxy isoflavones]	3.50 ± 0.07
COc1ccc2c(=O)c(-c3ccc(O)cc3)coc2c1 [Compound K052, 4′-hydroxy, 7-methoxy-isoflavone]	3.07 ± 0.10
COc1ccc(-c2coc3cc(O)ccc3c2=O)cc1O [Compound K054, 7, 3′-dihydroxy-4′-methoxyisoflavone]	3.32 ± 0.09

Same assay, conditions: 10^−10 M; 48 h; Control 1.87 ± 0.20; Mean±SEM

Compound	alkaline phosphatase activity
COc1cc(O)c2c(=O)c(-c3ccc(O)cc3O)coc2c1 [Compound K051, 2′,4′,5-trihydroxy-7-methoxy isoflavones]	3.59 ± 0.08
COc1ccc2c(=O)c(-c3ccc(O)cc3)coc2c1 [Compound K052, 4′-hydroxy, 7-methoxy-isoflavone]	3.01 ± 0.26
COc1ccc(-c2coc3cc(O)ccc3c2=O)cc1O [Compound K054, 7, 3′-dihydroxy-4′-methoxyisoflavone]	3.22 ± 0.12

Same assay, conditions: 10^−11 M to 10^−5 M; 48 h

Compound	expression of alkaline phosphatase vs vehicle control
COc1cc(O)c2c(=O)c(-c3ccc(O)cc3O)coc2c1 [Compound K051, 2′,4′,5-trihydroxy-7-methoxy isoflavones]	increased expression of alkaline phosphatase
COc1ccc2c(=O)c(-c3ccc(O)cc3)coc2c1 [Compound K052, 4′-hydroxy, 7-methoxy-isoflavone]	increased expression of alkaline phosphatase
COc1ccc(-c2coc3cc(O)ccc3c2=O)cc1O [Compound K054, 7, 3′-dihydroxy-4′-methoxyisoflavone]	increased expression of alkaline phosphatase

Same assay, conditions: 10^−11 M; 48 h; Control 1.87 ± 0.20; Mean±SEM

Compound	alkaline phosphatase activity
COc1cc(O)c2c(=O)c(-c3ccc(O)cc3O)coc2c1 [Compound K051, 2′,4′,5-trihydroxy-7-methoxy isoflavones]	3.63 ± 0.04
COc1ccc2c(=O)c(-c3ccc(O)cc3)coc2c1 [Compound K052, 4′-hydroxy, 7-methoxy-isoflavone]	3.17 ± 0.06
COc1ccc(-c2coc3cc(O)ccc3c2=O)cc1O [Compound K054, 7, 3′-dihydroxy-4′-methoxyisoflavone]	3.01 ± 0.25

Each compound was assayed on osteoblasts cultured on sterile bovine bone slices (assay: Mineralisation by osteoblasts cultured on bovine bone slices, Alizarin red staining). Details: osteoblasts on bovine bone slices, 15 days; alone or in combination; FIGS. 14 and 15.
Assay type: cell-based, Balb/c mouse
Method: as §1
(§2) Cells are seeded onto sterile bovine bone slices in 96-well plate and treated with the culture medium containing α-MEM, supplemented with 10% fetal bovine serum, 2 mM glutamine, 100 U/ml penicillin-streptomycin, non-essential amino acid solution, sodium pyruvate, 10 mM P-glycerophosphate and 50 μg/ml ascorbic acid. Culture medium is changed every alternate day. At termination of the culture, cells are washed twice with PBS, fixed in cold 70% ethanol for 1 h and washed once with water and stained with 40 mM Alizarin red (pH 4.7) for 30 min and then washed in PBS to remove excess staining.
as §2, with “In case of osteoblasts” for “Cells are”, “slices, the cells are cultured” for “slices”, “in A-MEM” for “and treated with the culture medium containing α-MEM,”, “p-glycerophosphate” for “P-glycerophosphate”, “acid in the absence or presence of test compounds or their mixtures.” for “acid.”, “culture after 15 days,” for “culture,”

Compound	intensity of alizarin red staining (rate of new bone formation)
COc1cc(O)c2c(=O)c(-c3ccc(O)cc3O)coc2c1 [Compound K051, 2′,4′,5-trihydroxy-7-methoxy isoflavones]	increased intensity of alizarin red staining
COc1ccc2c(=O)c(-c3ccc(O)cc3)coc2c1 [Compound K052, 4′-hydroxy, 7-methoxy-isoflavone]	increased intensity of alizarin red staining
COc1ccc(-c2coc3cc(O)ccc3c2=O)cc1O [Compound K054, 7, 3′-dihydroxy-4′-methoxyisoflavone]	increased intensity of alizarin red staining

The compounds below were run on primary osteoblasts (assay: MTT assay for cell proliferation, primary osteoblast cell culture). Details: 10^−5 M; 24 h; Vehicle 0.60 ± 0.06; Mean±SEM.
Assay type: cell-based, Balb/c mouse
Method: as §1
MTT assay is a common assay used for assessing cell proliferation where tetrazolium salt is reduced to formazone crystals by the mitochondrial dehydrogenase enzyme, which are then dissolved in DMSO. More the number of metabolically active cells more will be the formazone crystals formed. Briefly, osteoblast cells are maintained in α-MEM medium supplemented with 10% FCS and 1% antibiotic solution in 96 well plate. When the cells attain 40% confluency, they are treated in presence or absence of test agents in 2% FCS supplemented media for 24 h. Twenty-four hours thereafter, MTT salt is added to the cells. After 4 h, the formazone crystals formed are dissolved in DMSO and readings taken at wavelength of 570 nm.
This assay is based on the ability of viable cells to reduce tetrazolium salt to form formazone crystals by mitochondrial dehydrogenase enzyme. In MTT assay, osteoblasts are maintained in α-MEM medium supplemented with 10% FCS and 1% antibiotic solution in 96 well plate. When the cells attain 40% confluency, they are treated in presence or absence of test agents in 2% FCS supplemented media for 24 h. Twenty-four hours thereafter, MTT salt is added to the cells. After 4 h, the formazone crystals formed due to reduction of tetrazolium salt by mitochondrial dehydrogenase enzyme are dissolved in DMSO and readings taken at wavelength of 570 nm. All the five pure compounds nos.

Compound	Osteoblast cell proliferation (MTT assay)
COc1cc(O)c2c(=O)c(-c3ccc(O)cc3O)coc2c1 [Compound K051, 2′,4′,5-trihydroxy-7-methoxy isoflavones]	1.32 ± 0.05
COc1ccc2c(=O)c(-c3ccc(O)cc3)coc2c1 [Compound K052, 4′-hydroxy, 7-methoxy-isoflavone]	1.19 ± 0.01
COc1ccc(-c2coc3cc(O)ccc3c2=O)cc1O [Compound K054, 7, 3′-dihydroxy-4′-methoxyisoflavone]	1.40 ± 0.02

Same assay, conditions: 10^−6 M; 24 h; Vehicle 0.60 ± 0.06; Mean±SEM

Compound	Osteoblast cell proliferation (MTT assay)
COc1cc(O)c2c(=O)c(-c3ccc(O)cc3O)coc2c1 [Compound K051, 2′,4′,5-trihydroxy-7-methoxy isoflavones]	1.34 ± 0.09
COc1ccc2c(=O)c(-c3ccc(O)cc3)coc2c1 [Compound K052, 4′-hydroxy, 7-methoxy-isoflavone]	1.86 ± 0.13
COc1ccc(-c2coc3cc(O)ccc3c2=O)cc1O [Compound K054, 7, 3′-dihydroxy-4′-methoxyisoflavone]	1.24 ± 0.01

Same assay, conditions: 10^−7 M; 24 h; Vehicle 0.60 ± 0.06; Mean±SEM

Compound	Osteoblast cell proliferation (MTT assay)
COc1cc(O)c2c(=O)c(-c3ccc(O)cc3O)coc2c1 [Compound K051, 2′,4′,5-trihydroxy-7-methoxy isoflavones]	1.33 ± 0.01
COc1ccc2c(=O)c(-c3ccc(O)cc3)coc2c1 [Compound K052, 4′-hydroxy, 7-methoxy-isoflavone]	1.70 ± 0.15
COc1ccc(-c2coc3cc(O)ccc3c2=O)cc1O [Compound K054, 7, 3′-dihydroxy-4′-methoxyisoflavone]	1.26 ± 0.07

Same assay, conditions: 10^−8 M; 24 h; Vehicle 0.60 ± 0.06; Mean±SEM

Compound	Osteoblast cell proliferation (MTT assay)
COc1cc(O)c2c(=O)c(-c3ccc(O)cc3O)coc2c1 [Compound K051, 2′,4′,5-trihydroxy-7-methoxy isoflavones]	1.32 ± 0.04
COc1ccc2c(=O)c(-c3ccc(O)cc3)coc2c1 [Compound K052, 4′-hydroxy, 7-methoxy-isoflavone]	1.73 ± 0.09
COc1ccc(-c2coc3cc(O)ccc3c2=O)cc1O [Compound K054, 7, 3′-dihydroxy-4′-methoxyisoflavone]	1.24 ± 0.06

Same assay, conditions: 10^−9 M; 24 h; Vehicle 0.60 ± 0.06; Mean±SEM

Compound	Osteoblast cell proliferation (MTT assay)
COc1cc(O)c2c(=O)c(-c3ccc(O)cc3O)coc2c1 [Compound K051, 2′,4′,5-trihydroxy-7-methoxy isoflavones]	1.03 ± 0.03
COc1ccc2c(=O)c(-c3ccc(O)cc3)coc2c1 [Compound K052, 4′-hydroxy, 7-methoxy-isoflavone]	1.70 ± 0.08
COc1ccc(-c2coc3cc(O)ccc3c2=O)cc1O [Compound K054, 7, 3′-dihydroxy-4′-methoxyisoflavone]	1.06 ± 0.04

Same assay, conditions: 10^−10 M; 24 h; Vehicle 0.60 ± 0.06; Mean±SEM

Compound	Osteoblast cell proliferation (MTT assay)
COc1cc(O)c2c(=O)c(-c3ccc(O)cc3O)coc2c1 [Compound K051, 2′,4′,5-trihydroxy-7-methoxy isoflavones]	0.92 ± 0.05
COc1ccc2c(=O)c(-c3ccc(O)cc3)coc2c1 [Compound K052, 4′-hydroxy, 7-methoxy-isoflavone]	1.43 ± 0.05
COc1ccc(-c2coc3cc(O)ccc3c2=O)cc1O [Compound K054, 7, 3′-dihydroxy-4′-methoxyisoflavone]	0.88 ± 0.09

Same assay, conditions: 10^−11 M to 10^−5 M; 24 h

Compound	osteoblast cell proliferation vs vehicle control
COc1cc(O)c2c(=O)c(-c3ccc(O)cc3O)coc2c1 [Compound K051, 2′,4′,5-trihydroxy-7-methoxy isoflavones]	enhanced osteoblast cell proliferation
COc1ccc2c(=O)c(-c3ccc(O)cc3)coc2c1 [Compound K052, 4′-hydroxy, 7-methoxy-isoflavone]	enhanced osteoblast cell proliferation
COc1ccc(-c2coc3cc(O)ccc3c2=O)cc1O [Compound K054, 7, 3′-dihydroxy-4′-methoxyisoflavone]	enhanced osteoblast cell proliferation

Same assay, conditions: 10^−11 M; 24 h; Vehicle 0.60 ± 0.06; Mean±SEM

Compound	Osteoblast cell proliferation (MTT assay)
COc1cc(O)c2c(=O)c(-c3ccc(O)cc3O)coc2c1 [Compound K051, 2′,4′,5-trihydroxy-7-methoxy isoflavones]	0.85 ± 0.05
COc1ccc2c(=O)c(-c3ccc(O)cc3)coc2c1 [Compound K052, 4′-hydroxy, 7-methoxy-isoflavone]	1.45 ± 0.23
COc1ccc(-c2coc3cc(O)ccc3c2=O)cc1O [Compound K054, 7, 3′-dihydroxy-4′-methoxyisoflavone]	0.75 ± 0.06

Same assay, conditions: order K052, K080, K095, K051, K054

Compound	relative potency in osteoblast proliferation (MTT)
COc1ccc2c(=O)c(-c3ccc(O)cc3)coc2c1 [Compound K052, 4′-hydroxy, 7-methoxy-isoflavone]	most potent

The compounds below were run on osteoblast cells (assay: Quantification of mineralization in osteoblasts (Alizarin red, acetic acid extraction)). Details: osteoblasts cultured 7 days; vs vehicle control; FIG. 13.
Assay type: cell-based, Balb/c mouse
Method: as §1
For quantification of mineralization which is measured with increased deposition of nascent calcium in osteoblast cells, cells were cultured in the presence of test compounds for 7 days and stained with Alizarin red. Alizarin red was extracted with acetic acid and the intensity of stain, which is directly proportion to the extent of mineralisation, is read at 405 nm.

Compound	mineralisation quantified by alizarin extraction method
COc1cc(O)c2c(=O)c(-c3ccc(O)cc3O)coc2c1 [Compound K051, 2′,4′,5-trihydroxy-7-methoxy isoflavones]	enhanced mineralisation
COc1ccc2c(=O)c(-c3ccc(O)cc3)coc2c1 [Compound K052, 4′-hydroxy, 7-methoxy-isoflavone]	enhanced mineralisation
COc1ccc(-c2coc3cc(O)ccc3c2=O)cc1O [Compound K054, 7, 3′-dihydroxy-4′-methoxyisoflavone]	enhanced mineralisation
